Measured values as given in patent US4371537A, “Sulfur-substituted phenoxypyridines having antiviral activity” (The Dow Chemical Company, priority 1981, dated 1983).
≈ marks a conversion by molar mass, not a printed value.

Assays:
rhinovirus type 5 (RV-5) = experiment: Tissue culture testing, rhinovirus type 5 in HeLa cells; format: cell-based; details: Enterovirus, 48 and 72 hours, NA = not active at the standard test conditions, read-out: RV-5: lowest concentration of the compound necessary to cause a 50 percent reduction in cytopathic effect
Procedure: Monolayered HeLa cells in 16 millimeter (mm) tissue culture dishes were treated with 1 ml of culture medium (Eagles medium supplemented with fetal calf serum) containing subject compound at an appropriate concentration or containing no compound at all. Culture media such as those described herein are more fully described in standard texts, as for example, Kuchler's Biochemical Methods in Cell Culture and Virology, Dowden, Hutchinson and Ross, Inc., Stroudsberg, PA (1977). Following treatment, cells were challenged with 0.05 ml of rhinovirus type 1A (RV-1A), rhinovirus type 2 (RV-2) or Coxsackie A21 virus (Cox A21) in culture medium. Some of the compounds were also tested against rhinovirus type 5 (RV-5), rhinovirus type 8 (RV-8) or rhinovirus type 64 (RV-64). Cell controls received no viruses.
^2 Lowest concentration of the compound (μg/ml) necessary to cause

[1] = system: 20 different rhinoviruses; experiment: Summary of WI-38 tissue culture testing against 20 rhinoviruses; format: cell-based; details: 3.0 μg/ml
Procedure: (§1) The test compound was dissolved in an appropriate solvent (generally dimethyl sulfoxide) and incubated at 56° C. for at least 15 minutes and this solution was then used to prepare various test solutions having the desired concentration of test compound in preheated WI maintenance medium (49% Eagles, 49% medium 199, 2% fetal calf serum and antibiotics).
(§2) Triplicate cell culture tubes (WI-38 human embryonic lung cell culture tubes) were fed with 1 ml of medium containing the compound at specified concentrations and inoculated with 3-300 TCID50 (3-300 times the tissue culture infective dose 50, i.e., the dose required to infect 50% of the cell cultures tested). Simultaneous viral titrations were performed. The tissue cultures were supplemented with fresh medium when necessary (around 3-4 days) until viral titrations were completed.
(§3) The cell culture tubes were examined dialy for cytopathic effect. […] Comparisons were made at that time with the percentage of cell sheet destruction in tubes containing virus compound mixtures. Observed differences of 75% or more were graded "+", 74-50% as "±", and less than 50% as "-" inhibition.

Hanks Untyped = experiment: Inhibition of cytopathic effect in WI-38 cell culture tubes, Hanks Untyped; format: cell-based, rhinovirus; details: Enterovirus, WI-38 cells, read-out: Inhibition grade, Hanks Untyped; for inhibition at 25 µg/mL: 25 μg/ml
Procedure: as §1, §2, §3

Rhinovirus Type 81 = experiment: Inhibition of cytopathic effect in WI-38 cell culture tubes, rhinovirus type 81; format: cell-based; details: Enterovirus, WI-38 cells, read-out: Inhibition grade, Rhinovirus Type 81; for inhibition at 25 µg/mL: 25 μg/ml
Procedure: as §1, §2, §3

Rhinovirus Type 6 = experiment: Inhibition of cytopathic effect in WI-38 cell culture tubes, rhinovirus type 6; format: cell-based; details: Enterovirus, WI-38 cells, read-out: Inhibition grade, Rhinovirus Type 6; for inhibition at 25 µg/mL: 25 μg/ml
Procedure: as §1, §2, §3

Rhinovirus Type 74 = experiment: Inhibition of cytopathic effect in WI-38 cell culture tubes, rhinovirus type 74; format: cell-based; details: Enterovirus, WI-38 cells, read-out: Inhibition grade, Rhinovirus Type 74; for inhibition at 25 µg/mL: 25 μg/ml
Procedure: as §1, §2, §3

Rhinovirus Type 21 = experiment: Inhibition of cytopathic effect in WI-38 cell culture tubes, rhinovirus type 21; format: cell-based; details: Enterovirus, WI-38 cells, read-out: Inhibition grade, Rhinovirus Type 21; for inhibition at 25 µg/mL: 25 μg/ml
Procedure: as §1, §2, §3

Rhinovirus Type 29 = experiment: Inhibition of cytopathic effect in WI-38 cell culture tubes, rhinovirus type 29; format: cell-based; details: Enterovirus, WI-38 cells, read-out: Inhibition grade, Rhinovirus Type 29; for inhibition at 25 µg/mL: 25 μg/ml
Procedure: as §1, §2, §3

Rhinovirus Type 58 = experiment: Inhibition of cytopathic effect in WI-38 cell culture tubes, rhinovirus type 58; format: cell-based; details: Enterovirus, WI-38 cells, read-out: Inhibition grade, Rhinovirus Type 58; for inhibition at 25 µg/mL: 25 μg/ml
Procedure: as §1, §2, §3

[2] = system: Coxsackie A21 virus (Cox A21); experiment: Tissue culture testing, Coxsackie A21 virus in HeLa cells; format: cell-based; details: 48 and 72 hours, NA = not active at the standard test conditions, read-out: Cox A21: lowest concentration of the compound necessary to cause a 50 percent reduction in cytopathic effect
Outline: (§4)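 HeLa monolayers pretreated with compound in Eagle's medium with fetal calf serum, then challenged with virus; uninfected cell controls included. Value reported is the lowest compound concentration (μg/ml) needed for the effect.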

Rhinovirus Type 13 = experiment: Inhibition of cytopathic effect in WI-38 cell culture tubes, rhinovirus type 13; format: cell-based; details: Enterovirus, WI-38 cells, read-out: Inhibition grade, Rhinovirus Type 13; for inhibition at 25 µg/mL: 25 μg/ml
Procedure: as §1, §2, §3

Rhinovirus Type 10 = experiment: Inhibition of cytopathic effect in WI-38 cell culture tubes, rhinovirus type 10; format: cell-based; details: Enterovirus, WI-38 cells, read-out: Inhibition grade, Rhinovirus Type 10; for inhibition at 25 µg/mL: 25 μg/ml
Procedure: as §1, §2, §3

Rhinovirus Type 60 = experiment: Inhibition of cytopathic effect in WI-38 cell culture tubes, rhinovirus type 60; format: cell-based; details: Enterovirus, WI-38 cells, read-out: Inhibition grade, Rhinovirus Type 60; for inhibition at 25 µg/mL: 25 μg/ml
Procedure: as §1, §2, §3

rhinovirus type 2 (RV-2) = experiment: Tissue culture testing, rhinovirus type 2 in HeLa cells; format: cell-based; details: Enterovirus, 48 and 72 hours, NA = not active at the standard test conditions, read-out: RV-2: lowest concentration of the compound necessary to cause a 50 percent reduction in cytopathic effect
Outline: as §4

Structure (SMILES)	EC50 (rhinovirus type 5 (RV-5))	EC50 [2]	EC50 (rhinovirus type 2 (RV-2))	inhibition at 25 µg/mL (Hanks Untyped)	inhibition at 25 µg/mL (Rhinovirus Type 81)	inhibition at 25 µg/mL (Rhinovirus Type 6)	inhibition at 25 µg/mL (Rhinovirus Type 74)	inhibition at 25 µg/mL (Rhinovirus Type 21)	inhibition at 25 µg/mL (Rhinovirus Type 29)	inhibition at 25 µg/mL (Rhinovirus Type 58)	inhibition at 25 µg/mL (Rhinovirus Type 13)	inhibition at 25 µg/mL (Rhinovirus Type 10)	inhibition at 25 µg/mL (Rhinovirus Type 60)	other results
CCS(=O)(=O)c1ccc(Oc2ccc(C(=O)c3ccccc3)cc2)nc1 [Example 43, (4-((5-(ethylsulfonyl)-2-pyridinyl)oxy)phenyl)phenylmethanone]	12.5 µg/mL (≈ 34 µM)	< 3.12 µg/mL	6.25 µg/mL (≈ 17 µM)											inhibition of the multiplication of the majority of the 20 test rhinoviruses [1]: failed to inhibit the multiplication of the majority of the 20 test rhinoviruses; inhibition at 3 µg/mL (Hanks Untyped; 3.0 μg/ml): 50 to 74%; inhibition at 3 µg/mL (Rhinovirus Type 81; 3.0 μg/ml): ≥ 75%; inhibition at 3 µg/mL (Rhinovirus Type 6; 3.0 μg/ml): < 50%; inhibition at 3 µg/mL (Rhinovirus Type 74; 3.0 μg/ml): 50 to 74%; inhibition at 3 µg/mL (Rhinovirus Type 21; 3.0 μg/ml): < 50%; inhibition at 3 µg/mL (Rhinovirus Type 29; 3.0 μg/ml): ≥ 75%; inhibition at 3 µg/mL (Rhinovirus Type 58; 3.0 μg/ml): < 50%; inhibition at 3 µg/mL (Rhinovirus Type 13; 3.0 μg/ml): < 50%; inhibition at 3 µg/mL (Rhinovirus Type 10; 3.0 μg/ml): < 50%; inhibition at 3 µg/mL (Rhinovirus Type 60; 3.0 μg/ml): 50 to 74%
CCS(=O)(=O)c1ccc(Oc2ccc(Cl)c(Cl)c2)nc1 [Example 47, 2-(3,4-dichlorophenoxy)-5-(ethylsulfonyl)pyridine]		2.5 µg/mL (≈ 7.53 µM)	0.625 µg/mL (≈ 1.88 µM)	≥ 75%	≥ 75%	50 to 74%	≥ 75%	≥ 75%	≥ 75%	≥ 75%	< 50%	≥ 75%	≥ 75%	
CS(=O)(=O)c1ccc(Oc2ccc(C(=O)c3ccccc3)cc2)nc1 [Example 31, (4-((5-(methylsulfonyl)-2-pyridinyl)oxy)phenyl)phenylmethanone]	6.25 µg/mL (≈ 17.7 µM)	0.125 µg/mL (≈ 0.354 µM)	5 µg/mL (≈ 14.1 µM)	≥ 75%	≥ 75%	50 to 74%	≥ 75%	50 to 74%	≥ 75%	≥ 75%	< 50%	≥ 75%	≥ 75%	
CCS(=O)(=O)c1ccc(Oc2ccc(Cl)cc2)nc1 [Example 42, 2-(4-chlorophenoxy)-5-(ethylsulfonyl)pyridine]		3.12 µg/mL (≈ 10.5 µM)	3.12 µg/mL (≈ 10.5 µM)											inhibition at 12.5 µg/mL (Hanks Untyped; 12.5 μg/ml): ≥ 75%; inhibition at 12.5 µg/mL (Rhinovirus Type 81; 12.5 μg/ml): ≥ 75%; inhibition at 12.5 µg/mL (Rhinovirus Type 6; 12.5 μg/ml): ≥ 75%; inhibition at 12.5 µg/mL (Rhinovirus Type 74; 12.5 μg/ml): ≥ 75%; inhibition at 12.5 µg/mL (Rhinovirus Type 21; 12.5 μg/ml): 50 to 74%; inhibition at 12.5 µg/mL (Rhinovirus Type 29; 12.5 μg/ml): ≥ 75%; inhibition at 12.5 µg/mL (Rhinovirus Type 58; 12.5 μg/ml): ≥ 75%; inhibition at 12.5 µg/mL (Rhinovirus Type 13; 12.5 μg/ml): < 50%; inhibition at 12.5 µg/mL (Rhinovirus Type 10; 12.5 μg/ml): 50 to 74%; inhibition at 12.5 µg/mL (Rhinovirus Type 60; 12.5 μg/ml): ≥ 75%
